Measurements as given in patent US20230037414A1, “INHIBITORS OF ADRENOMEDULLIN FOR THE TREATMENT OF ACUTE MYELOID LEUKEMIA BY ERADICATING LEUKEMIC STEM CELLS” (INSERM (INSTITUT NATIONAL DE LA SANTÉ ET DE LA RECHERCHE …, priority 2019, published 2023).

What was measured:
[1] = tested on: primary AML samples; experiment: PDX model of AraC treatment in AML (NSG mice); assay type: in vivo
Method: NSG mice were produced at the Genotoul Anexplo platform at Toulouse (France) using breeders obtained from Charles River Laboratories. Transplanted mice were treated with antibiotic (Baytril) for the duration of the experiment. For experiments assessing the response to chemotherapy in PDX models, mice (6-9 weeks old) were sublethally treated with busulfan (30 mg/kg) 24 hours before injection of leukemic cells. Leukemia samples were thawed in 37° C. water bath, washed in IMDM 20% FBS, and suspended in Hank's Balanced Salt Solution at a final concentration of 1-10×10^6 cells per 200 μL for tail vein injection in NSG mice. Eight to 18 weeks after AML cell transplantation and when mice were engrafted (tested by flow cytometry on peripheral blood or bone marrow aspirates), NSG mice were treated by daily intraperitoneal injection of 60 mg/kg AraC or vehicle (PBS) for 5 days. AraC was kindly provided by the pharmacy of the TUH. Mice were sacrificed at day 8 to harvest human leukemic cells from murine bone marrow. For AML cell lines, 24 hours before injection of leukemic cells mice were treated with busulfan (20 mg/kg). Then cells were thawed and washed as previously described, suspended in HBSS at a final concentration of 2×106 per 200 μL before injection into bloodstream of NSG mice. […] Daily monitoring of mice for symptoms of disease (ruffled coat, hunched back, weakness, and reduced mobility) determined the time of killing for injected animals with signs of distress.
At the end of experiment, NSG mice were humanely killed in accordance with European ethics protocols. […] The number of AML cells/μL peripheral blood and number of AML cells in total cell tumor burden (in bone marrow and spleen) were determined by using CountBright beads (Invitrogen) using described protocol.
Proteins were resolved using 4% to 12% polyacrylamide gel electrophoresis Bis-Tris gels (Life Technology, Carlsbad, Calif.) and electrotransferred to nitrocellulose membranes. […] Quantification of chemiluminescent signals was done with the GeneTools software from Syngene.

[2] = tested on: MOLM-14 cells; experiment: EC50 experiments (MTS cell viability) on MOLM-14 cells FACS-sorted from xenografted mice; assay type: cell-based; conditions: Homo sapiens, MOLM-14, 168 h, after one week of in vitro culture
Method: The day before experiment, cells were adjusted to 3×10^5 cells/ml final concentration and plated in a 96-well plate (final volume: […]). To measure half-maximal inhibitory concentration (EC50), increased concentrations of AraC or idarubicin were added to the medium. After two days, 20 µl per well of MTS solution (Promega) was added for two hours and then absorbance was recorded at 490 nm with a 96-well plate reader. The doses that decrease cell viability to 50% (EC50) were analyzed Nonlinear regression log [inhibitor] vs. normalized response-variable slope with GraphPad Prism software.

[3] = MOLM-14 shCTR cells from AraC treated mice
[4] = MOLM-14 shCTR cells from vehicle-treated mice

| SMILES | percentage of human cells in the bone marrow of mice ([1]; AraC vs PBS treated mice) | levels of secreted ADM in the bone marrow of mice ([1]; bone marrow supernatant, western blot, AraC vs PBS) | percentage of positive blasts for CALCRL ([1]; minimal residual disease after 60 mg/kg/day AraC for 5 days, day 8, 5.6% without AraC) [%] | EC50 [2, 3] [µM] | EC50 [2, 4] [µM] |
| --- | --- | --- | --- | --- | --- |
| Nc1ccn([C@@H]2O[C@H](CO)[C@@H](O)[C@@H]2O)c(=O)n1 [AraC, cytarabine] | reduced | reduced | 23 | 7 | 2 |
| CC(=O)[C@]1(O)Cc2c(O)c3c(c(O)c2[C@@H](O[C@H]2C[C@H](N)[C@H](O)[C@H](C)O2)C1)C(=O)c1ccccc1C3=O [idarubicin] |  |  |  | 0.061 | 0.029 |
